Drawing on PubChem BioAssay (NCI), this text covers GI50 and TGI for 21 compounds.

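A five-concentration, 48-hour dose response in 96-well plates underlies each endpoint, interpolated linearly between surrounding concentrations. Here, GI50 denotes the concentration required for 50% inhibition of growth. At the TGI there is no net growth.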

Holding throughout (test): NCI tumour cell line growth inhibition, 48 h
Assay [1] relates to SN12C renal.
Assay [2] has as its system U251 CNS.
Assay [3] concerns NCI-H460 lung.
Assay [4] deals with OVCAR-5 ovarian.
Assay [5] relates to SW-620 colon.
For assay [6], the system named is UACC-257 melanoma.
Assay [7] has as its system M14 melanoma.
The test system of assay [8] is NCI-H226 lung.
Assay [9] concerns LOX IMVI melanoma.
The subject of assay [10] is SK-MEL-2 melanoma.

With `COc1ccc(C2c3ccc4ccccc4c3Oc3ncn(CCCn4ccnc4)c(=N)c32)cc1OC` (stereo unspecified), the GI50 in assay [1] is 3.64 µM; in assay [2] it was 2.36 µM; in assay [3] it was 3.65 µM; in [4], 4.55 µM; in [5] it was 2.73 µM; in assay [6], 3.07 µM. The GI50 is 1.98 µM in [7], 9.16 µM in assay [8] and 1.88 µM in assay [9]. Also, the TGI in [1] came out at 17.7 µM; in assay [2], 7.69 µM; in assay [3] it was 13.2 µM; in assay [4] it was 17.8 µM; in [5], 9.24 µM; in [6], 11.4 µM. Further, the TGI turned out to be 3.83 µM in assay [7], 27.1 µM in assay [8] and 3.7 µM in assay [9].
Consider `O/N=C1/CCCC/C1=C\c1ccc(Cl)c(Cl)c1`, for which the TGI in [1] was 42.3 µM; in [2] it was 38.9 µM; in assay [3], 57.1 µM; in assay [5] it was > 100 µM; in [7] it was 82.9 µM; in assay [9] it was 42.9 µM.
As for `CCOc1ccccc1/C=N\N=C(N/N=C/c1ccccc1OCC)N/N=C/c1ccccc1OCC`, the GI50 in assay [1] is 2.32 µM; in assay [2] it was 1.53 µM; in assay [3], 1.35 µM; in assay [4], 2.52 µM; in assay [5], 3.24 µM; in assay [6], 3.12 µM. Besides, the GI50 was 2.78 µM in assay [10], 2.74 µM in [8] and 1.8 µM in [9]. For the same compound, the TGI in assay [1], in [2], in [3], in [4], in assay [5] and in assay [6] was > 100 µM throughout. Also, the TGI in assay [10], in [8] and in [9] was > 100 µM in each case.
Turning to `C[C@@H]1CC[C@@]2(C)OC(c3ccccc3)[C@H](CO)N2C1=O` (stereo partly specified), the TGI in [1], in assay [2], in assay [3], in assay [4], in assay [5] and in assay [6] was > 100 µM throughout. Moreover, the TGI in assay [10] and in assay [9] was > 100 µM throughout.
`CCCN(CCC)c1ccc(/C=N/NC(=O)c2cccnc2)c(C)c1`: the GI50 in assay [1] is 17.5 µM; in [2] it was 13.3 µM; in assay [3] it was 14.2 µM; in assay [4] it was 13.1 µM; in assay [5], 14.8 µM; in assay [6], 12.3 µM. For the same compound, the GI50 in assay [8] was 12 µM; in assay [9] it was 13.5 µM. The TGI amounted to 41.2 µM in [1]; 26 µM in assay [2]; 28.3 µM in assay [3]; 33.8 µM in assay [4]; 35.7 µM in assay [5]; 24.8 µM in assay [6]. In addition, the TGI was 26.3 µM in [8] and 27.6 µM in [9].
Take `CCOC(=O)C1CC(=O)C=C2CCCCC21` (stereo unspecified): the TGI in assay [1], in [2], in assay [3], in assay [4], in assay [5] and in assay [6] was > 100 µM throughout. Further, the TGI in assay [10], in [7] and in [9] was > 100 µM in each case.
`N#Cc1c(N)nc2c(c1-c1ccc(Cl)cc1)COc1ccc(F)cc1-2`: the GI50 in assay [1] is 19.1 µM; in assay [2], 31.7 µM; in assay [3], 37.1 µM; in assay [4] it was 27.5 µM; in [5], 31.1 µM; in assay [6], 29.4 µM. Moreover, the GI50 in [10] is 19 µM; in assay [7], 29.8 µM; in assay [9] it was 18.4 µM. For the same compound, the TGI in assay [1] was 47.7 µM; in assay [2] it was > 100 µM; in assay [3] it was > 100 µM; in assay [4], > 100 µM; in assay [5] it was 97.4 µM; in assay [6] it was 90.8 µM. For the same compound, the TGI in assay [10] turned out to be 64.2 µM; in [7] it was 96.1 µM; in assay [9], 40.2 µM.
As to `CCOc1ccc(-c2nc3ccc(-c4nc5ccc(N6CCN(C)CC6)cc5[nH]4)cc3[nH]2)cc1`, the GI50 in assay [1] is 0.342 µM; in assay [2] it was 0.155 µM; in [3], 0.489 µM; in assay [4], 1.47 µM; in assay [5], 0.234 µM; in [10], 1.07 µM. The GI50 in assay [7] was 0.264 µM; in [8], 0.648 µM; in assay [9], 0.188 µM. Besides, the TGI is 1.61 µM in assay [1]; 1.05 µM in assay [2]; 1.67 µM in assay [3]; 3.07 µM in [4]; 1.17 µM in [5]; 2.49 µM in assay [10]. The TGI in assay [7] turned out to be 2.08 µM; in [8] it was 2.25 µM; in [9], 0.485 µM.
For the compound `COc1cc2c3c(n(CCCN=[N+]=[N-])c(=O)c2cc1OC)-c1ccccc1C3=O`, the GI50 in assay [1] was 13.7 µM; in assay [2] it was 1.61 µM; in assay [3], 5.2 µM; in assay [5], 12 µM; in assay [10], > 100 µM; in [7], 1.82 µM. Also, the GI50 in assay [9] is 1.33 µM. Besides, the TGI is > 100 µM in [1]; 24.5 µM in [2]; > 100 µM in assay [3]; > 100 µM in [5]; > 100 µM in assay [10]; 13.9 µM in assay [7]. In addition, in assay [9], the TGI was 9.14 µM.
With `CCOC(=O)NC(=O)c1cn(CCSCCOC(=O)NCCCCCCNC(=O)OCCSCCn2cc(C(=O)NC(=O)OCC)c(=O)n(C)c2=O)c(=O)n(C)c1=O`, the TGI in [1] is > 100 µM; in [2] it was 40.3 µM; in assay [3], > 100 µM; in assay [4] it was > 100 µM; in assay [5], > 100 µM; in assay [6], > 100 µM. The TGI in assay [10] was > 100 µM; in assay [8], 73.8 µM; in [9] it was > 100 µM.
As to `COc1ccc2cc3c4cc(OC)c(OC)cc4ccn3c2c1`, the TGI in assay [1], in assay [2], in [3], in assay [4], in assay [5] and in assay [6] was > 100 µM each time. For the same compound, the TGI in [10], in [8] and in assay [9] was > 100 µM throughout.
`COc1ccc(C)c2sc(N(Cc3cccnc3)C(=O)c3ccc(C#N)cc3)nc12`: the GI50 in assay [1] is 44.2 µM; in assay [2] it was 42.3 µM; in [3] it was 40 µM; in assay [4] it was 47.5 µM; in [5], 54.2 µM; in assay [6] it was 56 µM. Also, the GI50 in assay [7] is 44.9 µM; in [8], 54.4 µM; in [9], 40.8 µM. The TGI in [1], in [2], in [3], in assay [4], in assay [5] and in assay [6] was > 100 µM each time. Further, the TGI in [7], in assay [8] and in assay [9] was > 100 µM in each case.
For `Cc1[nH]c2ccccc2c1CO`, the GI50 in [1] was 15.8 µM; in assay [2], 21.2 µM; in assay [3], 16.9 µM; in assay [4] it was 24.4 µM; in assay [5], 15.1 µM; in assay [6] it was 24.1 µM. Further, the GI50 in assay [10] was 16.7 µM; in [7], 16.4 µM; in [8], 25.8 µM. The TGI amounted to 32.1 µM in assay [1]; 43.9 µM in [2]; 31.6 µM in [3]; 96.9 µM in assay [4]; 28.4 µM in assay [5]; 60.2 µM in assay [6]. In addition, the TGI in [10] turned out to be 36.6 µM; in assay [7], 34.9 µM; in assay [8] it was 93.9 µM.
For the compound `O=C(O)c1cnc2c(ccc3[nH]cccc32)c1=O`, the TGI in assay [1], in assay [2], in [3], in assay [4], in [5] and in [10] was > 100 µM in each case. Moreover, the TGI in assay [7] and in assay [9] was > 100 µM in each case.
Turning to `Cc1ccc(-c2cc(C(=O)Nc3ccc(S(=O)(=O)N4CCCCC4)cc3)[nH]n2)c(O)c1`, the GI50 in assay [1], in assay [2], in assay [3], in assay [4], in assay [5] and in assay [6] was > 100 µM in each case. Also, the GI50 in assay [10], in assay [8] and in [9] was > 100 µM in each case. For the same compound, the TGI in assay [1], in [2], in [3], in assay [4], in assay [5] and in [6] was > 100 µM in each case. Besides, the TGI in assay [10], in assay [8] and in assay [9] was > 100 µM throughout.
With `CC(=O)N1c2ccccc2N(C(C)=O)C1c1ccc(C2N(C(C)=O)c3ccccc3N2C(C)=O)[nH]1`, the TGI in [1], in assay [2], in [3], in assay [4], in assay [5] and in assay [6] was > 100 µM throughout. The TGI in [7], in assay [8] and in assay [9] was > 100 µM in each case.
`O=C1CCC2(c3ccc(Cl)cc3)Nc3ccccc3N12` (stereo unspecified): the TGI in assay [1], in [2], in [3], in assay [4], in [5] and in assay [6] was > 100 µM throughout. Also, the TGI in assay [10], in [8] and in assay [9] was > 100 µM throughout.
For the compound `COC(=O)CCc1n(Cc2ccc3ccccc3c2)c2ccccc2[n+]1Cc1ccc2ccccc2c1`, the GI50 is 0.833 µM in assay [1]; 1.04 µM in assay [2]; 1.18 µM in assay [3]; 1.18 µM in assay [4]; 1.27 µM in [5]; 0.549 µM in assay [6]. Besides, the results for the GI50 in assay [10], in [7] and in [9] were 1.23 µM, 0.524 µM and 0.557 µM, respectively. The TGI in [1] is 2.19 µM; in assay [2] it was 2.3 µM; in assay [3], 2.7 µM; in assay [4] it was 2.77 µM; in assay [5], 2.85 µM; in assay [6], 2.37 µM. The figures for the TGI in assay [10], in [7] and in [9] were 2.72 µM, 2.04 µM and 1.93 µM, respectively.
`N#CC(Sc1ccccc1)C(N)=O` (stereo unspecified): the TGI in assay [1], in assay [2], in assay [4], in [5], in [6] and in assay [7] was > 100 µM in each case. The TGI in assay [8] and in assay [9] was > 100 µM in each case.
Take `CC(C)N(C(=O)C12C3C4C5C3C1(C(=O)O)C5C42)C(C)C` (stereo unspecified): the TGI in assay [1], in assay [2], in assay [3], in assay [4], in assay [5] and in assay [6] was > 100 µM in each case. For the same compound, the TGI in assay [10], in assay [7] and in [9] was > 100 µM in each case.
On to `CN1CCc2ccccc2C1Cc1ccccc1NC(=O)c1sc2ccccc2c1Cl` (stereo unspecified), for which the TGI in assay [1], in [2], in [3], in assay [5], in assay [6] and in [10] was > 100 µM in each case. Further, the TGI in assay [7] and in assay [8] was > 100 µM each time.
